# Experimental data from PubChem BioAssay AID2060612 (Molecular Pharmacology Branch, DTP, NCI, 2025).
# Test system: 565232-114-T-J1-PDC complex spheroid viability
# Assay: Anticancer human tumor 565232-114-T-J1-PDC patient-derived bladder carcinoma cell line growth inhibition [CLK]
# Conditions: for IC50: curve of first compound; for viability, T/C: stronger effect = lower value
# In short: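 Patient-derived tumor cells grown as complex spheroids with HUVEC endothelial cells and mesenchymal stem cells, treated with drug combinations. Concentrations descend in half-log steps from near clinical Cmax, or from 10 microM if Cmax unknown.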
# [1] = second compound 0.0316 µM, first compound 0.0316 µM
# [2] = second compound 0.0316 µM, first compound 0.1 µM
# [3] = second compound 0.0316 µM, first compound 0.316 µM
# [4] = second compound 0.0316 µM, first compound 1 µM
# [5] = second compound 0.0316 µM, first compound 3.16 µM
# [6] = second compound 0.0316 µM, first compound 10 µM
# [7] = second compound 0.1 µM, first compound 0.0316 µM
# [8] = second compound 0.1 µM, first compound 0.1 µM
# [9] = second compound 0.1 µM, first compound 0.316 µM
# [10] = second compound 0.1 µM, first compound 1 µM
# [11] = second compound 0.1 µM, first compound 3.16 µM
# [12] = second compound 0.1 µM, first compound 10 µM
# [13] = second compound 0.316 µM, first compound 0.0316 µM
# [14] = second compound 0.316 µM, first compound 0.1 µM
# [15] = second compound 0.316 µM, first compound 0.316 µM
# [16] = second compound 0.316 µM, first compound 1 µM
# [17] = second compound 0.316 µM, first compound 3.16 µM
# [18] = second compound 0.316 µM, first compound 10 µM
# [19] = second compound 1 µM, first compound 0.0316 µM
# [20] = second compound 1 µM, first compound 0.1 µM
# [21] = second compound 1 µM, first compound 0.316 µM
# [22] = second compound 1 µM, first compound 1 µM
# [23] = second compound 1 µM, first compound 3.16 µM
# [24] = second compound 1 µM, first compound 10 µM
# [25] = second compound 3.16 µM, first compound 0.0316 µM
# [26] = second compound 3.16 µM, first compound 0.1 µM
# [27] = second compound 3.16 µM, first compound 0.316 µM
# [28] = second compound 3.16 µM, first compound 1 µM
# [29] = second compound 3.16 µM, first compound 3.16 µM
# [30] = second compound 3.16 µM, first compound 10 µM
# [31] = second compound 10 µM, first compound 0.0316 µM
# [32] = second compound 10 µM, first compound 0.1 µM
# [33] = second compound 10 µM, first compound 0.316 µM
# [34] = second compound 10 µM, first compound 1 µM
# [35] = second compound 10 µM, first compound 3.16 µM
# [36] = second compound 10 µM, first compound 10 µM
# 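Also: spheroids exposed to compounds for 7 days before readout.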
# 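For viability, T/C in this document: 100% = DMSO vehicle wells with luminescence normalized to vehicle control.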
structure (smiles),measurement,setting,value
Nc1ccn(C2OC(CO)C(O)C2(F)F)c(=O)n1 (stereo unspecified) + CN1CCN(c2cc(C(=O)Nc3cc4cc(-c5cnn(C)c5)ccc4cn3)ccn2)CC1,IC50,second compound 0.0316 µM,0.192 µM
same,IC50,second compound 0.1 µM,0.242 µM
same,IC50,second compound 0.316 µM,< 0.0316 µM
same,IC50,second compound 1 µM,< 0.0316 µM
same,IC50,second compound 3.16 µM,< 0.0316 µM
same,IC50,second compound 10 µM,< 0.0316 µM
same,"viability, T/C",[1],93.3%
same,"viability, T/C",[2],62.8%
same,"viability, T/C",[3],40.7%
same,"viability, T/C",[4],33.8%
same,"viability, T/C",[5],38%
same,"viability, T/C",[6],38.3%
same,"viability, T/C",[7],112%
same,"viability, T/C",[8],74.6%
same,"viability, T/C",[9],42.3%
same,"viability, T/C",[10],32.8%
same,"viability, T/C",[11],30.2%
same,"viability, T/C",[12],29.7%
same,"viability, T/C",[13],18%
same,"viability, T/C",[14],21.2%
same,"viability, T/C",[15],20.4%
same,"viability, T/C",[16],19%
same,"viability, T/C",[17],16.7%
same,"viability, T/C",[18],17.5%
same,"viability, T/C",[19],0.16%
same,"viability, T/C",[20],0.19%
same,"viability, T/C",[21],0.2%
same,"viability, T/C",[22],0.11%
same,"viability, T/C",[23],1.16%
same,"viability, T/C",[24],1.27%
same,"viability, T/C",[25],0.18%
same,"viability, T/C",[26],2.52%
same,"viability, T/C",[27],0.18%
same,"viability, T/C",[28],0.15%
same,"viability, T/C",[29],0.92%
same,"viability, T/C",[30],1.45%
same,"viability, T/C",[31],0.18%
same,"viability, T/C",[32],1.54%
same,"viability, T/C",[33],0.18%
same,"viability, T/C",[34],0.17%
same,"viability, T/C",[35],2.1%
same,"viability, T/C",[36],4.24%
O=C(c1cc(Cc2n[nH]c(=O)c3ccccc23)ccc1F)N1CCN(C(=O)C2CC2)CC1 + CN1CCN(c2cc(C(=O)Nc3cc4cc(-c5cnn(C)c5)ccc4cn3)ccn2)CC1,IC50,second compound 0.0316 µM,> 10 µM
same,IC50,second compound 0.1 µM,> 10 µM
same,IC50,second compound 0.316 µM,< 0.0316 µM
same,IC50,second compound 1 µM,< 0.0316 µM
same,IC50,second compound 3.16 µM,< 0.0316 µM
same,IC50,second compound 10 µM,< 0.0316 µM
same,"viability, T/C",[1],110%
same,"viability, T/C",[2],117%
same,"viability, T/C",[3],109%
same,"viability, T/C",[4],94.4%
same,"viability, T/C",[5],128%
same,"viability, T/C",[6],130%
same,"viability, T/C",[7],122%
same,"viability, T/C",[8],106%
same,"viability, T/C",[9],139%
same,"viability, T/C",[10],115%
same,"viability, T/C",[11],148%
same,"viability, T/C",[12],108%
same,"viability, T/C",[13],23.3%
same,"viability, T/C",[14],22.6%
same,"viability, T/C",[15],24.8%
same,"viability, T/C",[16],20.1%
same,"viability, T/C",[17],19.8%
same,"viability, T/C",[18],16%
same,"viability, T/C",[19],0.19%
same,"viability, T/C",[20],1.21%
same,"viability, T/C",[21],0.25%
same,"viability, T/C",[22],0.17%
same,"viability, T/C",[23],0.18%
same,"viability, T/C",[24],0.19%
same,"viability, T/C",[25],0.15%
same,"viability, T/C",[26],0.29%
same,"viability, T/C",[27],1.69%
same,"viability, T/C",[28],0.26%
same,"viability, T/C",[29],2.21%
same,"viability, T/C",[30],4.24%
same,"viability, T/C",[31],1.42%
same,"viability, T/C",[32],0.19%
same,"viability, T/C",[33],3.03%
same,"viability, T/C",[34],0.19%
same,"viability, T/C",[35],0.25%
same,"viability, T/C",[36],0.28%
O=c1[nH]cc(F)c(=O)[nH]1 + CN1CCN(c2cc(C(=O)Nc3cc4cc(-c5cnn(C)c5)ccc4cn3)ccn2)CC1,IC50,second compound 0.0316 µM,> 10 µM
same,IC50,second compound 0.1 µM,> 10 µM
same,IC50,second compound 0.316 µM,< 0.0316 µM
same,IC50,second compound 1 µM,< 0.0316 µM
same,IC50,second compound 3.16 µM,< 0.0316 µM
same,IC50,second compound 10 µM,< 0.0316 µM
same,"viability, T/C",[1],95.6%
same,"viability, T/C",[2],77.4%
same,"viability, T/C",[3],105%
same,"viability, T/C",[4],106%
same,"viability, T/C",[5],123%
same,"viability, T/C",[6],113%
same,"viability, T/C",[7],90.5%
same,"viability, T/C",[8],83.1%
same,"viability, T/C",[9],101%
same,"viability, T/C",[10],130%
same,"viability, T/C",[11],171%
same,"viability, T/C",[12],120%
same,"viability, T/C",[13],16.8%
same,"viability, T/C",[14],18.7%
same,"viability, T/C",[15],22.1%
same,"viability, T/C",[16],22.7%
same,"viability, T/C",[17],19.2%
same,"viability, T/C",[18],17.1%
same,"viability, T/C",[19],0.2%
same,"viability, T/C",[20],0.42%
same,"viability, T/C",[21],0.17%
same,"viability, T/C",[22],0.16%
same,"viability, T/C",[23],1.57%
same,"viability, T/C",[24],0.22%
same,"viability, T/C",[25],0.2%
same,"viability, T/C",[26],0.14%
same,"viability, T/C",[27],1.23%
same,"viability, T/C",[28],0.14%
same,"viability, T/C",[29],1.73%
same,"viability, T/C",[30],1.38%
same,"viability, T/C",[31],0.13%
same,"viability, T/C",[32],0.29%
same,"viability, T/C",[33],0.25%
same,"viability, T/C",[34],0.15%
same,"viability, T/C",[35],0.19%
same,"viability, T/C",[36],1.01%
